Measured values reported in ChEMBL document CHEMBL4342421, “Current scenario of tetrazole hybrids for antibacterial activity” (Eur J Med Chem, 2019).

Columns and labels:
Type in all cases: functional
Pseudomonas aeruginosa [1] = assay: Antimicrobial activity against Pseudomonas aeruginosa assessed as zone of inhibition at 5 mg/ml; conditions: read-out: IZ
Staphylococcus aureus [2] = assay: Antimicrobial activity against Staphylococcus aureus assessed as zone of inhibition at 5 mg/ml; conditions: read-out: IZ
Klebsiella pneumoniae [3] = assay: Antimicrobial activity against Klebsiella pneumoniae assessed as zone of inhibition at 5 mg/ml; conditions: read-out: IZ
Escherichia coli [4] = assay: Antimicrobial activity against Escherichia coli assessed as zone of inhibition at 5 mg/ml; conditions: read-out: IZ
Staphylococcus aureus [5] = assay: Antimicrobial activity against Staphylococcus aureus ATCC 25923 assessed as zone of inhibition at 100 ug/ml after 24 hrs by disc diffusion method; conditions: ATCC 25923, 24 h, read-out: IZ
Klebsiella pneumoniae [6] = assay: Antimicrobial activity against Klebsiella pneumoniae ATCC 700603 assessed as zone of inhibition at 100 ug/ml after 24 hrs by disc diffusion method; conditions: ATCC 700603, 24 h, read-out: IZ
Streptococcus agalactiae = assay: Antimicrobial activity against Streptococcus agalactiae 55118 assessed as zone of inhibition at 100 ug/ml after 24 hrs by disc diffusion method; conditions: Streptococcus agalactiae, 55118, 24 h; read-out: IZ
Staphylococcus aureus [7] = assay: Antibacterial activity against methicillin resistant Staphylococcus aureus N315 after 24 hrs by two-fold broth serial dilution method; conditions: N315, 24 h
Bacillus subtilis = assay: Antibacterial activity against Bacillus subtilis ATCC 21216 after 24 hrs by two-fold broth serial dilution method; conditions: ATCC 21216, 24 h
Micrococcus luteus = assay: Antibacterial activity against Micrococcus luteus ATCC 4698 after 24 hrs by two-fold broth serial dilution method; conditions: ATCC 4698, 24 h
Escherichia coli [8] = assay: Antimicrobial activity against Escherichia coli JM 109 after 24 hrs by two-fold broth serial dilution method; conditions: JM 109, 24 h
Pseudomonas aeruginosa [9] = assay: Antimicrobial activity against Pseudomonas aeruginosa ATCC 27853 after 24 hrs by two-fold broth serial dilution method; conditions: ATCC 27853, 24 h
Shigella dysenteriae = assay: Antimicrobial activity against Shigella dysenteriae after 24 hrs by two-fold broth serial dilution method
Candida albicans = assay: Antifungal activity against Candida albicans ATCC 76615 after 24 hrs; conditions: ATCC 76615, 24 h
Cyberlindnera jadinii = assay: Antifungal activity against Candida utilis after 24 hrs; conditions: Williopsis jadinii
Aspergillus flavus [10] = assay: Antifungal activity against Aspergillus flavus after 24 hrs
Saccharomyces cerevisiae = assay: Antifungal activity against Saccharomyces cerevisiae after 24 hrs
Pichia norvegensis = assay: Antifungal activity against Candida mycoderma after 24 hrs
Aspergillus flavus [11] = assay: Antifungal activity against Aspergillus flavus
Aspergillus niger = assay: Antifungal activity against Aspergillus niger
Fusarium oxysporum = assay: Antifungal activity against Fusarium oxysporum

Cc1nc2ccccc2cc1Cn1cc(CSc2nnnn2-c2ccccc2)nn1
11 to 19 mm: zone of inhibition at 5000 µg/mL (Pseudomonas aeruginosa [1]) | zone of inhibition at 5000 µg/mL (Staphylococcus aureus [2]) | zone of inhibition at 5000 µg/mL (Klebsiella pneumoniae [3]) | zone of inhibition at 5000 µg/mL (Escherichia coli [4])

CC[C@H]1OC(=O)[C@H](C)[C@@H](O[C@H]2C[C@@](C)(OC)[C@@H](O)[C@H](C)O2)[C@H](C)[C@@H](O[C@@H]2O[C@H](C)C[C@H](N(C)C)[C@H]2O)[C@](C)(O)C[C@@H](C)C(=O)[C@H](C)[C@@H](O)[C@]1(C)O [ERYTHROMYCIN]
10 to 24 mm: zone of inhibition at 100 µg/mL (Staphylococcus aureus [5]) | zone of inhibition at 100 µg/mL (Klebsiella pneumoniae [6]) | zone of inhibition at 100 µg/mL (Streptococcus agalactiae)

CCn1cc(C(=O)O)c(=O)c2cc(F)c(N3CCNCC3)cc21 [NORFLOXACIN]
1 to 16 µg/mL: MIC (Staphylococcus aureus [7]) | MIC (Bacillus subtilis) | MIC (Micrococcus luteus) | MIC (Escherichia coli [8]) | MIC (Pseudomonas aeruginosa [9]) | MIC (Shigella dysenteriae) | MIC (Candida albicans) | MIC (Cyberlindnera jadinii) | MIC (Aspergillus flavus [10]) | MIC (Saccharomyces cerevisiae) | MIC (Pichia norvegensis)

Cc1ccc2cc(Cn3cc(CSc4nnnn4-c4ccccc4)nn3)c(C)nc2c1
11 to 19 mm: zone of inhibition at 5000 µg/mL (Pseudomonas aeruginosa [1]) | zone of inhibition at 5000 µg/mL (Staphylococcus aureus [2]) | zone of inhibition at 5000 µg/mL (Klebsiella pneumoniae [3]) | zone of inhibition at 5000 µg/mL (Escherichia coli [4])

COc1nc(N)nc(OC)c1Sc1nnnn1CC1CC1
10 to 24 mm: zone of inhibition at 100 µg/mL (Staphylococcus aureus [5]) | zone of inhibition at 100 µg/mL (Klebsiella pneumoniae [6]) | zone of inhibition at 100 µg/mL (Streptococcus agalactiae)

COc1ccc(-n2cc(-c3nnn[nH]3)nn2)cc1
100 µg/mL: MIC (Aspergillus flavus [11]) | MIC (Aspergillus niger) | MIC (Fusarium oxysporum)

Cc1ccc2nc(C)c(Cn3cc(CSc4nnnn4-c4ccccc4)nn3)cc2c1
11 to 19 mm: zone of inhibition at 5000 µg/mL (Pseudomonas aeruginosa [1]) | zone of inhibition at 5000 µg/mL (Staphylococcus aureus [2]) | zone of inhibition at 5000 µg/mL (Klebsiella pneumoniae [3]) | zone of inhibition at 5000 µg/mL (Escherichia coli [4])

CCCn1nnnc1Sc1c(OC)nc(N)nc1OC
24 mm: zone of inhibition at 100 µg/mL (Staphylococcus aureus [5]) | zone of inhibition at 100 µg/mL (Klebsiella pneumoniae [6]) | zone of inhibition at 100 µg/mL (Streptococcus agalactiae)

CCCCCCn1nnnc1Sc1c(OC)nc(N)nc1OC
10 to 24 mm: zone of inhibition at 100 µg/mL (Staphylococcus aureus [5]) | zone of inhibition at 100 µg/mL (Klebsiella pneumoniae [6]) | zone of inhibition at 100 µg/mL (Streptococcus agalactiae)

c1ccc(-n2cc(-c3nnn[nH]3)nn2)cc1
100 µg/mL: MIC (Aspergillus flavus [11]) | MIC (Aspergillus niger) | MIC (Fusarium oxysporum)

Cc1cc(=O)oc2cc(OCC(O)Cn3cnnn3)ccc12 (stereo not given)
8 to 512 µg/mL: MIC (Staphylococcus aureus [7]) | MIC (Bacillus subtilis) | MIC (Micrococcus luteus) | MIC (Escherichia coli [8]) | MIC (Pseudomonas aeruginosa [9]) | MIC (Shigella dysenteriae) | MIC (Candida albicans) | MIC (Cyberlindnera jadinii) | MIC (Aspergillus flavus [10]) | MIC (Saccharomyces cerevisiae) | MIC (Pichia norvegensis)

Clc1ccccc1C(c1ccccc1)(c1ccccc1)n1ccnc1 [CLOTRIMAZOLE]
100 µg/mL: MIC (Aspergillus flavus [11]) | MIC (Aspergillus niger) | MIC (Fusarium oxysporum)
